The test system of data set [1] is A549. Nature of the data set: Cell proliferation assay, Alamar Blue, A549. The data set is classed as cell-based. The following applies: Homo sapiens, Table 16. The method, then: (§1) c. Plate 4,000-5,000 cells per well in 100 μl of medium and seed into a 96-well plate according to the following plate layout. Add cell culture medium only to wells B10 to B12. Wells B1 to B9 have cells but no compound added.
(§2) d. Add 100 μl of 2× drug dilution to each well in a concentration shown in the plate layout above. At the same time, add 100 μl of media into the control wells (wells B10 to B12). Total volume is 200 μl/well.
(§3) e. Incubate four (4) days at 37° C., 5% CO2 in a humidified incubator.
(§4) f. Add 20 μl Alamar Blue reagent to each well.
(§5) g. Incubate for four (4) hours at 37° C., 5% CO2 in a humidified incubator.
(§6) h. Record fluorescence at an excitation wavelength of 544 nm and emission wavelength of 590 nm using a microplate reader.
(§7) In the assays, cells are cultured with a test compound for approximately four days, the dye then is added to the cells and fluorescence of […] dye is detected after approximately four hours. Different types of cells can be utilized in the assays (e.g., HCT-116 human colorectal carcinoma cells, PC-3 human prostatic cancer cells and MiaPaca human pancreatic carcinoma cells). Anti-proliferative effects of representative compounds are provided hereafter.
In general terms: Resazurin is reduced to fluorescent resorufin, in cell work by metabolically active cells.

Data set [2] relates to HCT-116 human colorectal carcinoma cells. Nature of the data set: Cell proliferation assay, Alamar Blue, HCT-116.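 Further: cells exposed to compound for about 4 days, then Alamar Blue added and fluorescence read after about 4 h, medium-only wells as control.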 The data set is classed as cell-based.
The test system of data set [3] is MiaPaca human pancreatic carcinoma cells. Nature of the data set: Cell proliferation assay, Alamar Blue, MiaPaca. It counts as cell-based. The method, then: (§8) A representative cell-proliferation assay protocol using Alamar Blue dye (stored at 4° C., use 20 ul per well) is described hereafter.
as §1, §2, §3, §4, §5, §6, §7

For data set [4], the system named is PC-3 human prostatic cancer cells. Nature of the data set: Cell proliferation assay, Alamar Blue, PC-3. The data set is classed as cell-based. The method, then:
as §8, §1, §2, §3, §4, §5, §6, §7

Data set [5] relates to H1299. Nature of the data set: Cell proliferation assay, Alamar Blue, H1299. The data set is classed as cell-based. The following applies: Homo sapiens, NCI-H1299. The method, then: as §1, §2, §3, §4, §5, §6, §7
The subject of data set [6] is Hs578T. Nature of the data set: Cell proliferation assay, Alamar Blue, Hs578T. It counts as cell-based. The following applies: Homo sapiens, Hs-578T.
For data set [7], the system named is HT29. Nature of the data set: Cell proliferation assay, Alamar Blue, HT29. The data set is classed as cell-based. The following applies: Homo sapiens, HT-29. The method, then:
as §1, §2, §3, §4, §5, §6, §7

The subject of data set [8] is BxPC3. Nature of the data set: Cell proliferation assay, Alamar Blue, BxPC3. It counts as cell-based. The following applies: Homo sapiens, BXPC-3; Table 19b. The method, then:
as §1, §2, §3, §4, §5, §6, §7

The subject of data set [9] is PanC1. Nature of the data set: Cell proliferation assay, Alamar Blue, PanC1. It counts as cell-based. The following applies: Homo sapiens, PANC-1; Table 19b; read-out: IC50 PanC1. The method, then:
as §8, §1, §2, §3, §4, §5, §6, §7

Data set [10] in a line: Pharmacokinetics in ICR mice after IV and PO dose. The data set is classed as in vivo.

Here are results for 16 compounds from patent US9062043B2, “Fused tricyclic compounds as serine-threonine protein kinase and PARP modulators” (SENHWA BIOSCIENCES, INC., priority 2006, dated 2015).

Where two headings read alike, the source gives them in different places.

For orientation: IC50 means the concentration that inhibits the measured activity by half. In the case of `NS(=O)(=O)c1cccc(Nc2nc3cc(C(=O)O)ccc3c3sccc23)c1`, the IC50 in data set [1] was 7.6 µM; in data set [2] (HCT-116, Table 16, second HCT-116 column), over 10 µM; in data set [3] (MIA PaCa-2, Table 16), over 10 µM; in [4] (Table 16, read-out: IC50 PC3) it was 44.9 µM; in [5] (Table 16), 9.9 µM; in data set [6] (Table 16) it was 11 µM. Further, the IC50 in [7] (Table 16) is 4.6 µM.

As to `N#Cc1cccc(Nc2nc3cc(C(=O)O)ccc3c3sccc23)c1`, the half-maximal inhibitory concentration (IC50) was 16 µM in data set [1]; over 10 µM in [3] (MIA PaCa-2, Table 16); over 50 µM in data set [4] (Table 16, read-out: IC50 PC3); 19.1 µM in data set [5] (Table 16); 12.3 µM in [6] (Table 16); 16.6 µM in [7] (Table 16).

As for `C#Cc1cccc(Nc2nc3cc(C(=O)O)ccc3c3sccc23)c1` [drawing 938], the IC50 in data set [1] was 27.7 µM; in [3] (MIA PaCa-2, Table 16), over 10 µM; in data set [4] (Table 16, read-out: IC50 PC3) it was 17.8 µM; in data set [5] (Table 16) it was 16.9 µM; in [6] (Table 16) it was 9.96 µM; in data set [7] (Table 16), 23.1 µM.

As to `O=C(O)c1ccc2c(c1)nc(NCCc1ccccc1)c1ccncc12` [drawing 1007], the IC50 in data set [2] (HCT-116, Table 18) is over 10 µM; in [3] (MIA PaCa-2, Table 18) it was 5.08 µM; in [4] (Table 18, read-out: IC50 PC3), 23.6 µM; in [5] (Table 18) it was 21 µM; in [6] (Table 18) it was 16.5 µM.

Consider `O=C(O)c1ccc2c(c1)nc(NCCc1ccccc1)c1ccncc12` [drawing 1206], for which, in data set [7] (Table 19b), the 50% inhibitory concentration (IC50) worked out at 46.9 µM.

On to `O=C(O)c1ccc2c(c1)nc(NCCc1cccc(Cl)c1)c1ccncc12` [drawing 1219], for which the results for the half-inhibitory concentration (IC50) in data set [8], in data set [9] and in [7] (Table 19b) were 24.3 µM, 28.1 µM and 34 µM, respectively.

`O=C(O)c1ccc2c(c1)nc(NCCc1cccc(F)c1)c1ccncc12` [drawing 1220]: the IC50 worked out at 3.29 µM in data set [8], 28.2 µM in data set [9] and 31.3 µM in data set [7] (Table 19b).

Regarding `O=C(O)c1ccc2c(c1)nc(NCCCc1ccccc1)c1ccncc12` [drawing 1221], the IC50 in data set [8] is 23.4 µM; in [9], 34.4 µM; in data set [7] (Table 19b), 16.4 µM.

As to `CC1CCCCN1CCCNc1ncc2c(n1)c(Nc1ccc(F)c(Cl)c1)nc1cc(C(=O)O)ccc12` (stereo not drawn) [drawing 1280], the half-inhibitory concentration (IC50) is 3.34 µM in data set [8] and 10.5 µM in [9].

For the compound `Cc1cc(Nc2ncc3c(n2)c(Nc2ccc(F)c(Cl)c2)nc2cc(C(=O)O)ccc23)[nH]n1` [drawing 1286], the IC50 in data set [8] and in [9] was over 50 µM throughout.

Take `O=C(O)c1ccc2c(c1)nc(NC1CC1)c1ccncc12` [drawing 1290]: the results for the IC50 in data set [8] and in data set [9] were 49 µM and over 50 µM, respectively.

`COC(=O)c1ccc2c(c1)nc(NC1CC1)c1nc(SC)ncc12` [drawing 1292]: the figures for the half-maximal inhibitory concentration (IC50) in data set [8] and in [9] were 7.39 µM and over 50 µM, respectively.

As to `CN(C)CCNc1nc2cc(C(=O)O)ccc2c2cnc(NC3CC3)nc12` [drawing 1293], the IC50 was 13 µM in data set [8] and over 50 µM in data set [9].

`Nc1ncc2c(n1)c(NC1CC1)nc1cc(C(=O)O)ccc12` [drawing 1295]: the IC50 is 43.8 µM in [8] and over 50 µM in [9].

As for `CCCNc1ncc2c(n1)c(NC1CC1)nc1cc(C(=O)O)ccc12` [drawing 1296], the IC50 in data set [8] was 5.58 µM; in data set [9] it was 1.33 µM.

The term AUC(0-inf) denotes total exposure, with the tail of the curve extrapolated. A higher AUC(0-inf) goes with more exposure. By AUC(0-t) is commonly meant the area under the concentration-time curve up to a stated or last time point. The low end stands for less exposure, the high end for more exposure. As a reminder, the Cmax is the peak of the concentration-time curve. The Tmax is the time from dosing to the highest level. In the case of `C#Cc1cccc(Nc2nc3cc(C(=O)O)ccc3c3cncnc23)c1` [drawing 1347], in data set [10] (PO, 24.5 mg/kg), the Kel worked out at 0.0594 h⁻¹. In data set [10] (mouse, plasma, IV, 3.4 mg/kg), the AUC(0-inf) was determined as 4900 ng·h/mL, the AUC(0-t) is 4810 ng·h/mL, the concentration peaked (Cmax) at 4740 ng/mL and the Vd stood at 4.9 L/kg. Also, in data set [10] (mouse, plasma, PO, 24.5 mg/kg), the AUC(0-inf) came out at 10900 ng·h/mL, the AUC(0-t) was 9120 ng·h/mL, the concentration peaked (Cmax) at 1600 ng/mL and the Tmax was 30 min.
